Calls of active or inactive are those of the source.
Legend:
[1] = molecular target: T1, Replicative DNA helicase DnaB (Mycobacterium tuberculosis, UniProt P9WMR3); experiment: DnaB intein splicing inhibitors, dose response, biochemical, cell-free fluorescence (AID 449749); format: functional
T1 sequence (P9WMR3 whole entry): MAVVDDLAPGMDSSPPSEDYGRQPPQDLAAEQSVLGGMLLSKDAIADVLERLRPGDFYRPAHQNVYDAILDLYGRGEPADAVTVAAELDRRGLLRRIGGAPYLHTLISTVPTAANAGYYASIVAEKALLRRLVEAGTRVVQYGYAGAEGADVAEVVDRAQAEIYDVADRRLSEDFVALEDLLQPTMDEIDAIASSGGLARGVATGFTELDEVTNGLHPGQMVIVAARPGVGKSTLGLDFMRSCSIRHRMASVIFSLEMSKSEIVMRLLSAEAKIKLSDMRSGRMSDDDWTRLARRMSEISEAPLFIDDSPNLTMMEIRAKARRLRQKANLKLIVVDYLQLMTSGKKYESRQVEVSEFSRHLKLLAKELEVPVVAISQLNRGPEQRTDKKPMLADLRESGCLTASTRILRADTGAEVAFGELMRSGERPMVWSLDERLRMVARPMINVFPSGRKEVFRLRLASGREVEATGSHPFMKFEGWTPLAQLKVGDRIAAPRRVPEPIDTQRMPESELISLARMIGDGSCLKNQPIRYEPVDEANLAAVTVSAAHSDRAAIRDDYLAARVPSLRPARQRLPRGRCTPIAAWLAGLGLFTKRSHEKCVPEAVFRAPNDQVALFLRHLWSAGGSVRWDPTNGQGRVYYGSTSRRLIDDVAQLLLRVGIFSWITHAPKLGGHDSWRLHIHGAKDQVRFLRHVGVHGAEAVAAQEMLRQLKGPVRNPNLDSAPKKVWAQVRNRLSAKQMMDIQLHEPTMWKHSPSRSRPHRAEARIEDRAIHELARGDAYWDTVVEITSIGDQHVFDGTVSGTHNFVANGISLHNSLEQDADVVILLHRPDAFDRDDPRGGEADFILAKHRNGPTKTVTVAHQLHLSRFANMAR

[2] = molecular target: T2, Protein RecA (Mycobacterium tuberculosis, UniProt P9WHJ3); experiment: Fluorescence Cell-Free Homogeneous Dose Retest to Identify Inhibitors of RecA-Intein Splicing Activity. [Related pubchem assays (depositor defined):AID2097, AID2223, AID489010, AID492950]; format: functional
T2 sequence (P9WHJ3 whole entry): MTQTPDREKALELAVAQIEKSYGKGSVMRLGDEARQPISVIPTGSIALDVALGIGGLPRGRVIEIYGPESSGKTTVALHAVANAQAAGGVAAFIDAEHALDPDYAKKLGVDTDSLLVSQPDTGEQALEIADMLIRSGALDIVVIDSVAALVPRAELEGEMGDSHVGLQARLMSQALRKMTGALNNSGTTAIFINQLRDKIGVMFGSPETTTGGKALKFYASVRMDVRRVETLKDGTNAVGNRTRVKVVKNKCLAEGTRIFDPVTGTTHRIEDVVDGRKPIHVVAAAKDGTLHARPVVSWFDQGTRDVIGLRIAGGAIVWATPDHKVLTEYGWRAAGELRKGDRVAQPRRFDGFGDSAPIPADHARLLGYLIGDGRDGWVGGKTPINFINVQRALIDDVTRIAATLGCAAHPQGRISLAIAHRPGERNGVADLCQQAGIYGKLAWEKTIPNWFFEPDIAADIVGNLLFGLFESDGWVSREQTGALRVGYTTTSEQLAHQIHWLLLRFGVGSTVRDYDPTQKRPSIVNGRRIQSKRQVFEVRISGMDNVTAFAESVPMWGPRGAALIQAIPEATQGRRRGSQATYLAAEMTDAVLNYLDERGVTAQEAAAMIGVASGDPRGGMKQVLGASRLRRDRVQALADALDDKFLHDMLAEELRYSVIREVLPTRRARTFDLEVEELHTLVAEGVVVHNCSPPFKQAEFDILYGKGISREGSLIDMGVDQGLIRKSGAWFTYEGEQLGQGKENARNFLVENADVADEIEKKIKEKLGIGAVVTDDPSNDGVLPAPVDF

[3] = inhibitors of SNCA 5'UTR-driven reporter translation, confirmation, H4 neuroglioma cells, luminescence (AID 1988); format: functional, cell-based
[4] = inhibitors of firefly luciferase expression or activity, dose response, H4 neuroglioma cells, luminescence (AID 1990); format: functional, cell-based
[5] = Luminescence Cell-Based Dose Response HTS to Identify Inhibitors of 5'UTR Stem-Loop Driven Prion Protein mRNA Translation in H4 Neuroglioblastoma Cells. [Related pubchem assays: 1827 (Project Summary), 1813 (Primary HTS)]; format: functional
[6] = cytotoxicity toward NIH3T3 fibroblasts, dose response, counter-screen, cell-based, ATP luminescence, mouse fibroblasts (AID 2010); format: functional;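 note: cells exposed to compound for about 90 hours before reading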
[7] = test system: INS1; experiment: beta cell apoptosis inhibitors, cytokine rescue, dose response, luminescence, retest (AID 449756); format: functional, cell-based; conditions: Rattus norvegicus;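 note: cell death triggered by IL-1 beta plus TNF-alpha plus IFN-gamma mixture; protective hits raise ATP signal compared with cytokine alone wells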
[8] = inhibitors of intracellular T. cruzi replication, confirmation, NIH3T3 host cells, beta-gal luminescence (AID 2044); format: functional, cell-based;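 note: intracellular parasites grown in NIH/3T3 mouse fibroblasts as host cells; luminescent beta-galactosidase reporter signal from transgenic T. cruzi replicating inside host cells; inhibitors lower the luminescence signal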
[9] = test system: Streptococcus; experiment: Group A Streptococcus viability loss, dose response, counter-screen for streptokinase expression inhibitor project, luminescence, BacTiterGlo (AID 1915); format: functional, organism-based;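 note: potency for reduction of bacterial viability or growth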
[10] = test system: Streptococcus sp. 'group A'; experiment: growth inhibition of control SK(-) GAS strain, dose response, counter-screen for streptokinase expression inhibitor project, luminescence, kanamycin, BacTiterGlo, confirmation (AID 1900); format: functional, organism-based
[11] = cells; format: functional
[12] = molecular target: Cytochrome P450 2D6 (Homo sapiens, UniProt P10635);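 note: CYP2D6 member of a cytochrome P450 panel assay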
Chain of Cytochrome P450 2D6 (P10635 whole entry): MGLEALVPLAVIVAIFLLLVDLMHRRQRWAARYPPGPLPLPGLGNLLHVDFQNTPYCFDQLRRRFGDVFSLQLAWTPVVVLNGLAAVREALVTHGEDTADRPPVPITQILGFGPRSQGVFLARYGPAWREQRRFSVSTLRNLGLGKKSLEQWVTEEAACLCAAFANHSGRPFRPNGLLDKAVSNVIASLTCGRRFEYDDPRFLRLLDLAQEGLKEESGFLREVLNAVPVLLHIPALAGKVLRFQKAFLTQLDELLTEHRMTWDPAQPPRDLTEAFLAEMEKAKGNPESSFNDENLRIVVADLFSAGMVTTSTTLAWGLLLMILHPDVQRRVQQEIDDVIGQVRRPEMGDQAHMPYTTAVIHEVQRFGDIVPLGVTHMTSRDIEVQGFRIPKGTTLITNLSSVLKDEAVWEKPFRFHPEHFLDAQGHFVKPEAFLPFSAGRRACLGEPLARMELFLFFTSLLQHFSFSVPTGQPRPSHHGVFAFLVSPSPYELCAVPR

[13] = Luminescence Cell-Based Dose Retest to Confirm Inhibitors of Cancer Stem Cells. [Related pubchem assays (depositor defined):AID2717, AID2721]; format: functional; conditions: Homo sapiens

| Structure (SMILES) | AC50 [1] | EC50 [2] | AC50 [7] | further results |
| --- | --- | --- | --- | --- |
| CC1CCCCC1NC(=O)NC(=O)CCl (stereo unspecified) | 22.5 µM (active) | 12.3 µM (active) | – | – |
| COC(=O)c1ccccc1NC(=O)C(C)n1nc(C)c2c(C)n(-c3ccccc3)nc2c1=O (stereo unspecified) | 208 µM (active) | > 380 µM (inactive) | – | EC50 [3]: 22.9 µM (active); EC50 [4]: 25.5 µM (active); EC50 [5]: 20.1 µM (active) |
| CCCN(CCC)C(=O)c1cc([N+](=O)[O-])cc2c1-c1ccc([N+](=O)[O-])cc1C2=C(C#N)C#N | – | – | 6.7 µM (active) | EC50 [6]: 10.7 µM (active); EC50 [8]: 1.62 µM (active) |
| C=C[C@H](Cc1ccccc1)N(Cc1ccccc1)S(=O)(=O)N(Cc1ccccc1)[C@H](C=C)Cc1ccccc1 | – | – | 4.47 µM (active) | – |
| COc1cc(C(C(=O)NC2CCCCC2)N(CCN2CCOCC2)C(=O)C2COc3ccccc3O2)cc(OC)c1OC (stereo unspecified) | > 380 µM (inactive) | > 380 µM (inactive) | – | – |
| O=C1/C(=C/c2cccc([N+](=O)[O-])c2)CCc2ccccc21 | 8.57 µM (active) | 13.3 µM (active) | – | – |
| Cc1ccc(-c2nn(-c3ccccc3)cc2/C=N/NC(=O)c2ccc3c(c2)OCO3)cc1 | – | – | 5.54 µM (active) | – |
| O=C(CNc1ccc(F)cc1)N/N=C/c1c(O)ccc2ccccc12 | – | – | 2.94 µM (active) | EC50 [9]: 1.67 µM (active); EC50 [10]: 0.846 µM (active) |
| CC1CCCC(/C=N/c2ccc(C(=O)O)c(O)c2)=C1O (stereo unspecified) | – | – | – | IC50 [11]: 0.2 µM (active) |
| Cc1ccc(/C=N/NC(=O)c2ccncc2)s1 | – | – | – | IC50 [11]: 0.96 µM (active) |
| Cc1cccc(-n2c(C)cc(/C=N/n3cnnc3)c2C)c1 | – | – | 14.1 µM (active) | – |
| CCCc1c(-c2ccc(O)cc2)nn(-c2ccc(O)cc2)c1-c1ccc(O)cc1 [PROPYLPYRAZOLETRIOL] | 2.92 µM (active) | 4.88 µM (active) | – | AC50 [12]: 12.6 µM (inconclusive); AC50 [13]: 3.78 µM (active) |

Source: ChEMBL document CHEMBL1201862, “PubChem BioAssay data set” (2004)
